Experimental data published in patent publication US4808521A, “Double-labeled enzymeimmunoassay methods” (priority 1985, dated 1989).

Biological target: β-galactosidase (Escherichia coli, UniProt P00722)
Assay: Kinetics of β-galactosidase hydrolysis of p-NPBG and its inhibition by diethanolamine
Format: biochemical
Settings: about 1M diethanolamine, pH 8.6, normal p-NPBG concentrations (up to approximately 5mM)
Protocol: β-galactosidase has a pH optimum of 7.4 for p-nitrophenyl-β-D-galactoside (p-NPBG), although in a single assay format using normal substrate concentrations (up to approximately 5mM), the pH can be raised to 8.6 with only a slight loss (approximately 20%) of activity.

Chain of β-galactosidase (P00722 2-1024): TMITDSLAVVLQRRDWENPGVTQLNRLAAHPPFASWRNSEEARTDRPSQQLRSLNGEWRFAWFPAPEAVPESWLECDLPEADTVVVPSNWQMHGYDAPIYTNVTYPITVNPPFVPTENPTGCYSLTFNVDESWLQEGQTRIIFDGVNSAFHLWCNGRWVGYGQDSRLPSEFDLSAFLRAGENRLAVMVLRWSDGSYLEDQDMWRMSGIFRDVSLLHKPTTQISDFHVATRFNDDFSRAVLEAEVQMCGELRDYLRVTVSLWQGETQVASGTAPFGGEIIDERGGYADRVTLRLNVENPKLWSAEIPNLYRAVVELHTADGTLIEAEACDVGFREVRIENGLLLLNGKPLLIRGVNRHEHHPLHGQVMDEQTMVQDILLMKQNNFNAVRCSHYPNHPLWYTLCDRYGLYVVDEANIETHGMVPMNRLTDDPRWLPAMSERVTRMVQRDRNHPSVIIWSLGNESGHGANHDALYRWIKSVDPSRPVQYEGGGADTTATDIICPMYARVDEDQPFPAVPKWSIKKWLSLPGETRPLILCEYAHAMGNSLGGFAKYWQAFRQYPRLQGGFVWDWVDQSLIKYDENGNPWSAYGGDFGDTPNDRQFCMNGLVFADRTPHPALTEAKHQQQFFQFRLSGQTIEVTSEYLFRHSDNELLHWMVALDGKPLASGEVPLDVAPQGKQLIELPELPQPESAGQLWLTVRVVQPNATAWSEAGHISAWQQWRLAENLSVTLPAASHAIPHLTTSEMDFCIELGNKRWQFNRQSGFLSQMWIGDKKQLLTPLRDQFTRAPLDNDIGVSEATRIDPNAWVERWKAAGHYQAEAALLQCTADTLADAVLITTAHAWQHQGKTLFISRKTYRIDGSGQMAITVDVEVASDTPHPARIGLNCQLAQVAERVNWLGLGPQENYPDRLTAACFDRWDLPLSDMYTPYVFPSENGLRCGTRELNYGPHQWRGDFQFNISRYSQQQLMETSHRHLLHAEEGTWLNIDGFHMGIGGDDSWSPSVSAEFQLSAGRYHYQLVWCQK

## OCCNCCO [diethanolamine]
  activity of β-galactosidase in the presence of diethanolamine: almost totally abolished
